Experiment [1] deals with T1, rhesus (Macacca Mulatta) H3 receptor (Macaca mulatta, UniProt Q865E1).
T1 construct: pcDNA5/FRT/TO (Invitrogen) containing the rhesus monkey (Macacca Mulatta) 445 amino acid H3 receptor
The experiment in a line: Rhesus H3 radioligand binding assay ([3H]-Methylhistamine displacement, WGA SPA beads). Particulars: read-out: Affinity: ki in Rhesus H3 membrane. Also on record: species or system rhesus monkey (Macacca Mulatta). How it is done: (§1) (Genbank #AY231164). Stably transfected cultures were amplified in tissue culture flasks by standard tissue culture methods and induced to express rhesus H3 by exposure to 500 ng/ml tetracycline (Cellgro) for 24 hours. After induction, cells were dissociated from flasks utilizing Cell Stripper (Cellgro). Cells were centrifuged (1K×g, 5 min) and pellet frozen in an ethanol-dry ice bath to disrupt cell membranes. Frozen cell pellet was re-suspended in 5 mM HEPES (pH 7.4, Invitrogen) at 10 ml/1000 cm2 of harvested cells. The cell suspension was drawn through an 18 gauge needle (2-3×) followed by a 23 gauge needle (2-3×) to further disrupt cell membranes. The cell suspension was centrifuged (40K×g, 30 min). Cell membrane pellet was re-suspended in 5 mM HEPES (pH 7.4, Invitrogen) at a final protein concentration of 10 mg/ml. Rhesus H3 membranes were stored under liquid nitrogen prior to use in [3H]-Methylhistamine and GTPγS radioligand binding assays.
Rhesus H3 radioligand binding assay was performed using rhesus H3 receptor membranes (prepared as described above), [3H]-Methylhistamine (Perkin Elmer) and WGA SPA beads (wheat germ agglutinin scintillation proximity assay) beads (Amersham). The assay was performed in 96-well Opti-Plates (Packard). Each reaction contained 50 μl rhesus H3 membranes (20-30 μg total protein), 50 μl WGA SPA beads (0.1 μg) and 50 μl of 83 Ci/mmol [^3H]-Methylhistamine (final concentration 2 nM) and 50 μl of tested compound. The compounds of this invention and/or vehicle were diluted with binding buffer from 10 mM DMSO stocks. Assay plates were sealed with TopSeal (Perkin Elmer) and mixed on shaker (25° C., 1 hour). Assay plates were read on TopCount scintillation counter (Packard). Results were analyzed by Hill transformation and Ki values were determined by Cheng-Prusoff equation.

Another experiment relates to rhesus H3. As to the kind of experiment: GTPγS radioligand binding assay, inhibition of rhesus H3 constitutive functional activity in cell membranes. Format: biochemical, rhesus monkey (Macacca Mulatta). As to conditions: Table 1; relative to basal level. The protocol: as §1, with “Rhesus H3 membranes were prepared from the Flp-In T-REx 293 Cell Line (Invitrogen) stably transfected with pcDNA5/FRT/TO (Invitrogen) containing the rhesus monkey (Macacca Mulatta) 445 amino acid H3 receptor. (Genbank” for “(Genbank”

[2] abbreviates: Table 2, stereoisomer comparison, procedure of Example 148.
Where [3] appears, read: Table 1, [3H]-Methylhistamine 2 nM, Cheng-Prusoff.

Molecules are shown by their SMILES. Where a name gives a salt, the structure may show the parent alone. Read-outs that look alike come from different tables or passages of the source.

T1 sequence (Q865E1 1-445): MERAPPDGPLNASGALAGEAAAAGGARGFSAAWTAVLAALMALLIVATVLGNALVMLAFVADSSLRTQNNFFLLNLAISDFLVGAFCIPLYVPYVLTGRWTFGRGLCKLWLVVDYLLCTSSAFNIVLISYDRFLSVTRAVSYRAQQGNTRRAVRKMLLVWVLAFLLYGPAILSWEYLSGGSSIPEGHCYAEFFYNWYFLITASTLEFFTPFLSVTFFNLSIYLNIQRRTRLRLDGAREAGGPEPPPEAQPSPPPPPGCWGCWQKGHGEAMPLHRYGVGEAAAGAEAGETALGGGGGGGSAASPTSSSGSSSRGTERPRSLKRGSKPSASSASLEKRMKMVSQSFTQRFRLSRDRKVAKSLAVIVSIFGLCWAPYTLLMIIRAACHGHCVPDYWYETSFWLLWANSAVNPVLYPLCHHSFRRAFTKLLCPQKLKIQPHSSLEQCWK

For orientation: Ki means the dissociation constant of the complex between target and ligand, obtained from inhibition or displacement. On to `Cc1cc(N2CC[C@@H](N3CCC[C@@H]3C)C2)ccc1NC(=O)c1cc(F)ccc1C` [Example 3, 5-Fluoro-2-methyl-N-[2-methyl-4-(2(2S)-methyl-[1,3′(3′R)]bipyrrolidinyl-1′-yl)-phenyl]-benzamide], for which the inhibition constant Ki in experiment [1] (setting [2]) was 7.3 nM.
Still for that read-out and setting: as for `Cc1cc(N2CC[C@H](N3CCC[C@H]3C)C2)ccc1NC(=O)c1cc(F)ccc1C` [Example 5, 5-Fluoro-2-methyl-N-[2-methyl-4-(2(2R)-methyl-[1,3′(3′S)]bipyrrolidinyl-1′-yl)-phenyl]-benzamide], the figure is 121 nM.
Regarding `Cc1cc(N2CCC(N3CCCC3C)C2)ccc1NC(=O)c1ccc(F)cc1` (stereo not drawn) [Example 7, 4-Fluoro-N-[2-methyl-4-(2-methyl-[1,3′]bipyrrolidinyl-1′-yl)-phenyl]-benzamide], the inhibitory constant (Ki) in experiment [1] (setting [3]) worked out at 2.06 nM. Further, in the experiment with rhesus H3, the “Inverse Agonism: % inhibition of Basal GTPγS binding in Rhesus H3” value (shortened to “Inverse Agonism: % inhibition”) is listed as −31%.
As for `Cc1cc(N2CC[C@@H](N3CCC[C@@H]3C)C2)ccc1NC(=O)c1cc(F)ccc1C` [Example 11, 5-Fluoro-2-methyl-N-[2-methyl-4-(2-(2S)-methyl-[1,3′(3′S)]bipyrrolidinyl-1′-yl)-phenyl]-benzamide], the inhibitory constant (Ki) in experiment [1] (setting [2]) was 2.5 nM.
In the case of `Cc1cc(N2CC[C@@H](N3CCC[C@H]3C)C2)ccc1NC(=O)c1cc(F)ccc1C` [Example 12, 5-Fluoro-2-methyl-N-[2-methyl-4-(2-(R)-methyl-[1,3′(R)]bipyrrolidinyl-1′-yl)-phenyl]-benzamide hydrochloride], the Ki in experiment [1] (setting [2]) amounted to 147 nM.
In the case of `Cc1cc(N2CC[C@H](N3CCC[C@@H]3C)C2)ccc1NC(=O)c1ccc2[nH]ccc2c1` [Example 52, 1H-Indole-5-carboxylic acid [2-methyl-4-(2(S)-methyl-[1,3′(5)]-bipyrrolidinyl-1′-yl)-phenyl]-amide trifluoroacetate], in experiment [1] (setting [3]), the inhibition constant (Ki) was found to be 0.77 nM. The “Inverse Agonism: % inhibition” value in the experiment on rhesus H3 is −17%.
For `Cc1cc(N2CC[C@H](N3CCC[C@@H]3C)C2)ccc1NC(=O)c1ccc2ccoc2c1` [Example 73, Benzofuran-6-carboxylic acid [2-methyl-4-(2(S)-methyl-[1,3′(S)]bipyrrolidinyl-1′-yl)-phenyl]-amide trifluoroacetate], in experiment [1] (setting [3]), the Ki worked out at 0.78 nM. Further, the “Inverse Agonism: % inhibition” value in the experiment on rhesus H3 was −15%.
Consider `Cc1cccc(C(=O)Nc2ccc(N3CC[C@H](N4CCC[C@@H]4C)C3)cc2C)n1` [Example 86, 6-Methyl-pyridine-2-carboxylic acid [2-methyl-4-(2(S)-methyl-[1,3′(S)]bipyrrolidinyl-1′-yl)-phenyl]-amide trifluoroacetate], for which the Ki in experiment [1] (setting [3]) turned out to be 1.42 nM. For the same compound, in the experiment with rhesus H3, the “Inverse Agonism: % inhibition” value is −18%.

(Values after patent US8618159B2, “Substituted N-phenyl-bipyrrolidine carboxamides and therapeutic use thereof” (Sanofi, priority 2007, dated 2013).)
